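96-well plates; 48 h exposure; 5 concentrations. Endpoints by linear interpolation between flanking doses. Not reached: highest tested concentration assigned. GI50: concentration for 50% inhibition of growth.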 Active and inactive are the calls of the source. Rule as the data show it: active = GI50 up to about 1.1 µM and inactive = higher.
Assays:
Experiment in all cases: growth of human tumour cells (NCI), 48 h
MDA-MB-435 = tested on: MDA-MB-435
UACC-257 = tested on: UACC-257
OVCAR-5 = tested on: OVCAR-5
HL-60 = tested on: HL-60
CAKI-1 = tested on: CAKI-1
SK-MEL-2 = tested on: SK-MEL-2
SF-295 = tested on: SF-295
Hs-578T = tested on: Hs-578T
SR = tested on: SR
MOLT-4 = tested on: MOLT-4
SF-539 = tested on: SF-539
U-251 = tested on: U-251
MDA-MB-231 = tested on: MDA-MB-231
HCC 2998 = tested on: HCC 2998
KM12 = tested on: KM12
NCI/ADR-RES = tested on: NCI/ADR-RES
UO-31 = tested on: UO-31
HCT-15 = tested on: HCT-15
SW-620 = tested on: SW-620
CCRF-CEM = tested on: CCRF-CEM

Measured: GI50

COc1cc(S(=O)(=O)Nc2nc(-c3ccc(/N=C/c4ccccc4O)cc3)cs2)ccc1Cl
31.6 µM: HCT-15
inactive: MDA-MB-435 54.5 µM | UACC-257 35.9 µM | OVCAR-5 > 100 µM | HL-60 35.6 µM | CAKI-1 60.4 µM | SK-MEL-2 34.7 µM | SF-295 36 µM | Hs-578T 38.2 µM | SR 34.7 µM | MOLT-4 27.5 µM | SF-539 39.4 µM | U-251 36.9 µM | MDA-MB-231 36.5 µM | HCC 2998 45.5 µM | KM12 53.8 µM | NCI/ADR-RES 50.5 µM | UO-31 44.2 µM | SW-620 79.8 µM | CCRF-CEM 26.5 µM

CCCN1CN(c2ccccc2)C2(CCN(CCCC(=O)c3ccc(F)cc3)CC2)C1=O
active: UACC-257 0.405 µM | CCRF-CEM 0.991 µM
4.31 µM: HCT-15
inactive: MDA-MB-435 11 µM | OVCAR-5 5.06 µM | HL-60 16.6 µM | CAKI-1 4.61 µM | SK-MEL-2 11.6 µM | SF-295 11 µM | Hs-578T 13.2 µM | SR 16.6 µM | MOLT-4 4.2 µM | SF-539 4.49 µM | U-251 14.7 µM | MDA-MB-231 6.93 µM | HCC 2998 7.82 µM | KM12 16.3 µM | NCI/ADR-RES 4.53 µM | UO-31 11.8 µM | SW-620 5.15 µM

COc1ccc(N2C(=O)C(=O)N(c3ccc(/N=N\c4ccccc4)cc3)C2=S)cc1
inactive: MDA-MB-435 22.8 µM | UACC-257 18.4 µM | OVCAR-5 21.1 µM | HL-60 47.3 µM | CAKI-1 20.2 µM | SK-MEL-2 17.9 µM | SF-295 18.7 µM | Hs-578T 27.4 µM | SR 38 µM | MOLT-4 32.9 µM | SF-539 19.2 µM | U-251 17.1 µM | MDA-MB-231 22.8 µM | HCC 2998 16.4 µM | KM12 17.5 µM | NCI/ADR-RES 18.9 µM | UO-31 16.3 µM | SW-620 18.7 µM | CCRF-CEM 35.1 µM
17.2 µM: HCT-15

CC(C)(C)c1ccc(-n2c3nc(=O)n(-c4ccccc4C(F)(F)F)c(=O)c-3cc3ccccc32)cc1
inactive: MDA-MB-435 15.6 µM | UACC-257 19.6 µM | OVCAR-5 20.2 µM | HL-60 9.77 µM | CAKI-1 25.1 µM | SK-MEL-2 14.6 µM | SF-295 19 µM | Hs-578T 21.9 µM | SR 19.3 µM | MOLT-4 17.9 µM | SF-539 23.8 µM | U-251 11 µM | MDA-MB-231 23.8 µM | HCC 2998 14.2 µM | KM12 16.2 µM | NCI/ADR-RES 23.4 µM | UO-31 20.7 µM | SW-620 25.8 µM | CCRF-CEM 13.3 µM
12.3 µM: HCT-15

Nc1cccnc1NCC1(CO)CCCC1
> 100 µM: HCT-15
inactive: MDA-MB-435 > 100 µM | UACC-257 > 100 µM | OVCAR-5 > 100 µM | HL-60 > 100 µM | CAKI-1 > 100 µM | SK-MEL-2 > 100 µM | SF-295 > 100 µM | Hs-578T > 100 µM | SR > 100 µM | MOLT-4 > 100 µM | SF-539 > 100 µM | U-251 > 100 µM | MDA-MB-231 > 100 µM | HCC 2998 > 100 µM | KM12 > 100 µM | NCI/ADR-RES > 100 µM | UO-31 > 100 µM | SW-620 > 100 µM | CCRF-CEM > 100 µM

CC(=O)OCC1OC(n2c3c(c(-c4ccc(Cl)cc4)c(C#N)c2=S)C(=O)CC(C)(C)C3)C(OC(C)=O)C(OC(C)=O)C1OC(C)=O (stereo not given)
14.2 µM: HCT-15
inactive: MDA-MB-435 12.7 µM | UACC-257 15.2 µM | OVCAR-5 35.8 µM | HL-60 5.33 µM | CAKI-1 11.4 µM | SK-MEL-2 23.4 µM | SF-295 32.6 µM | Hs-578T 20.7 µM | SR 4.12 µM | MOLT-4 4.45 µM | SF-539 21.1 µM | U-251 19.1 µM | MDA-MB-231 15.2 µM | HCC 2998 4.68 µM | KM12 29.7 µM | NCI/ADR-RES 12 µM | UO-31 39.2 µM | SW-620 7.06 µM | CCRF-CEM 3.95 µM

OCC(CCc1ccccc1I)C1=CCC2(CC1)OCCO2 (stereo not given)
inactive: MDA-MB-435 15.7 µM | UACC-257 21.6 µM | OVCAR-5 15.7 µM | HL-60 3.53 µM | CAKI-1 24.7 µM | SK-MEL-2 23.9 µM | SF-295 16.4 µM | Hs-578T 20.7 µM | SR 45.6 µM | MOLT-4 61.2 µM | SF-539 17.6 µM | U-251 19.7 µM | MDA-MB-231 23.9 µM | HCC 2998 20.4 µM | KM12 16.4 µM | NCI/ADR-RES 20.8 µM | UO-31 17.8 µM | SW-620 23.4 µM | CCRF-CEM 13.5 µM
21.9 µM: HCT-15

O=c1cc(CNC2CC3CCC2C3)[nH]c(=O)[nH]1 (stereo not given)
> 100 µM: HCT-15
inactive: MDA-MB-435 > 100 µM | UACC-257 > 100 µM | OVCAR-5 > 100 µM | HL-60 > 100 µM | CAKI-1 > 100 µM | SK-MEL-2 > 100 µM | SF-295 > 100 µM | Hs-578T > 100 µM | SR > 100 µM | MOLT-4 > 100 µM | SF-539 > 100 µM | U-251 > 100 µM | MDA-MB-231 > 100 µM | HCC 2998 > 100 µM | KM12 > 100 µM | NCI/ADR-RES > 100 µM | UO-31 > 100 µM | SW-620 > 100 µM | CCRF-CEM > 100 µM

C[C@@]12CCC3C1C=C1C(=O)c4cc(O)ccc4C(=O)[C@]1(O2)[C@@]3(C)C=O
inactive: MDA-MB-435 3.15 µM | UACC-257 9.16 µM | OVCAR-5 13.7 µM | HL-60 1.42 µM | CAKI-1 4.09 µM | SK-MEL-2 8.91 µM | SF-295 11.5 µM | Hs-578T 16.2 µM | SR 1.58 µM | MOLT-4 2.3 µM | SF-539 3.82 µM | U-251 9.44 µM | MDA-MB-231 8.71 µM | HCC 2998 2.97 µM | KM12 4.79 µM | NCI/ADR-RES 9.31 µM | UO-31 4.9 µM | SW-620 3.9 µM
2.66 µM: HCT-15
active: CCRF-CEM 0.977 µM

CC1=CC(C)(C)[C@H]2O[C@@]3(O)C[C@]4(C)[C@H]5C[C@@](C(C)C)(O[C@H]4c4ccoc4)O[C@H]4[C@]5(C3)O[C@@]1(O)[C@]24O
> 100 µM: HCT-15
inactive: MDA-MB-435 > 100 µM | UACC-257 > 100 µM | OVCAR-5 > 100 µM | HL-60 > 100 µM | CAKI-1 > 100 µM | SK-MEL-2 > 100 µM | SF-295 > 100 µM | Hs-578T 18.7 µM | SR > 100 µM | MOLT-4 > 100 µM | SF-539 > 100 µM | U-251 74 µM | MDA-MB-231 81.3 µM | HCC 2998 > 100 µM | KM12 > 100 µM | NCI/ADR-RES > 100 µM | UO-31 > 100 µM | SW-620 > 100 µM | CCRF-CEM > 100 µM

CC(=O)Nc1ccc(C2SCc3nc4ccccc4n32)cc1 (stereo not given)
inactive: MDA-MB-435 > 100 µM | UACC-257 57.4 µM | OVCAR-5 > 100 µM | HL-60 82 µM | CAKI-1 39.2 µM | SK-MEL-2 > 100 µM | SF-295 87.9 µM | Hs-578T 41.9 µM | SR > 77.1 µM | MOLT-4 > 100 µM | SF-539 > 100 µM | U-251 73.3 µM | MDA-MB-231 26.2 µM | HCC 2998 > 100 µM | KM12 > 100 µM | NCI/ADR-RES 33.5 µM | UO-31 44.3 µM | SW-620 > 100 µM | CCRF-CEM > 100 µM
47.3 µM: HCT-15

CNC(=O)OCc1c(COC(=O)NC)c(-c2ccc(Cl)c(Cl)c2)n2c1SCC2
inactive: MDA-MB-435 18 µM | UACC-257 10.4 µM | OVCAR-5 4.06 µM | HL-60 7.29 µM | CAKI-1 4.22 µM | SK-MEL-2 11.7 µM | SF-295 13.6 µM | Hs-578T 21 µM | SR 2.33 µM | MOLT-4 12 µM | SF-539 15.5 µM | U-251 7.85 µM | MDA-MB-231 10.8 µM | HCC 2998 19.7 µM | KM12 17.5 µM | NCI/ADR-RES 16 µM | UO-31 7.46 µM | SW-620 10.8 µM | CCRF-CEM 13.4 µM
13 µM: HCT-15

COC(=O)C1=C(C(=O)OC)C2(C)CCC(=O)C1O2 (stereo not given)
> 10 µM: HCT-15
inactive: MDA-MB-435 > 10 µM | UACC-257 > 10 µM | OVCAR-5 > 10 µM | HL-60 > 10 µM | CAKI-1 > 10 µM | SK-MEL-2 > 10 µM | SF-295 > 10 µM | Hs-578T > 10 µM | SR > 10 µM | MOLT-4 > 10 µM | SF-539 > 10 µM | U-251 > 10 µM | MDA-MB-231 > 10 µM | HCC 2998 > 10 µM | KM12 > 10 µM | NCI/ADR-RES > 10 µM | UO-31 > 10 µM | SW-620 > 10 µM | CCRF-CEM > 10 µM

O=C1CCc2ccc(O)c(c2)Oc2ccc(cc2)C(Sc2ccccc2)CCO1 (stereo not given)
inactive: MDA-MB-435 17.1 µM | UACC-257 16 µM | OVCAR-5 17.1 µM | HL-60 17.7 µM | CAKI-1 14.1 µM | SK-MEL-2 15.8 µM | SF-295 17.4 µM | Hs-578T 14.7 µM | SR 13.1 µM | MOLT-4 22.1 µM | SF-539 15.8 µM | U-251 16 µM | MDA-MB-231 3.85 µM | HCC 2998 17.1 µM | KM12 15 µM | NCI/ADR-RES 14.1 µM | UO-31 14.4 µM | SW-620 17 µM | CCRF-CEM 10.8 µM
13.7 µM: HCT-15

— ChEMBL document CHEMBL1201862, “PubChem BioAssay data set” (2004)
